Blank lines part the entries; values can stand above or below the compound they belong to.
Tested on: 361931-004-R-J1-PDC multicell spheroid viability
Assay: Anticancer human tumor 361931-004-R-J1-PDC patient-derived colon adenocarcinoma cell line growth inhibition [PI3K]
Details: for IC50: curve of first compound; for viability, T/C: stronger effect = lower value
Summary of the method: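 Viability of mixed-cell spheroids was determined after exposure to pairwise combinations, one partner being inavolisib, alpelisib, duvelisib or copanlisib. Highest tested concentration matched clinical Cmax where known and 10 microM where not, descending in half-log steps.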

[1] = second compound 0.0316 µM, first compound 0.0316 µM
[2] = second compound 0.0316 µM, first compound 0.1 µM
[3] = second compound 0.0316 µM, first compound 0.316 µM
[4] = second compound 0.0316 µM, first compound 1 µM
[5] = second compound 0.0316 µM, first compound 3.16 µM
[6] = second compound 0.0316 µM, first compound 10 µM
[7] = second compound 0.1 µM, first compound 0.0316 µM
[8] = second compound 0.1 µM, first compound 0.1 µM
[9] = second compound 0.1 µM, first compound 0.316 µM
[10] = second compound 0.1 µM, first compound 1 µM
[11] = second compound 0.1 µM, first compound 3.16 µM
[12] = second compound 0.1 µM, first compound 10 µM
[13] = second compound 0.316 µM, first compound 0.0316 µM
[14] = second compound 0.316 µM, first compound 0.1 µM
[15] = second compound 0.316 µM, first compound 0.316 µM
[16] = second compound 0.316 µM, first compound 1 µM
[17] = second compound 0.316 µM, first compound 3.16 µM
[18] = second compound 0.316 µM, first compound 10 µM
[19] = second compound 1 µM, first compound 0.0316 µM
[20] = second compound 1 µM, first compound 0.1 µM
[21] = second compound 1 µM, first compound 0.316 µM
[22] = second compound 1 µM, first compound 1 µM
[23] = second compound 1 µM, first compound 3.16 µM
[24] = second compound 1 µM, first compound 10 µM
[25] = second compound 3.16 µM, first compound 0.0316 µM
[26] = second compound 3.16 µM, first compound 0.1 µM
[27] = second compound 3.16 µM, first compound 0.316 µM
[28] = second compound 3.16 µM, first compound 1 µM
[29] = second compound 3.16 µM, first compound 3.16 µM
[30] = second compound 3.16 µM, first compound 10 µM
[31] = second compound 10 µM, first compound 0.0316 µM
[32] = second compound 10 µM, first compound 0.1 µM
[33] = second compound 10 µM, first compound 0.316 µM
[34] = second compound 10 µM, first compound 1 µM
[35] = second compound 10 µM, first compound 3.16 µM
[36] = second compound 10 µM, first compound 10 µM
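Note: spheroids exposed to agents for seven days before readout.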

- IC50 (second compound 0.0316 µM): > 10 µM
- IC50 (second compound 0.1 µM): > 10 µM
- IC50 (second compound 0.316 µM): > 10 µM
- IC50 (second compound 1 µM): > 10 µM
- IC50 (second compound 3.16 µM): 3.52 µM
- IC50 (second compound 10 µM): 0.219 µM
SMILES: C#Cc1c(F)ccc2cc(O)cc(-c3ncc4c(N5CC6CCC(C5)N6)nc(OCC56CCCN5CC(F)C6)nc4c3F)c12 (centres undefined) + Cc1nc(NC(=O)N2CCCC2C(N)=O)sc1-c1ccnc(C(C)(C)C(F)(F)F)c1
- viability, T/C [1]: 104%
- viability, T/C [2]: 90.5%
- viability, T/C [3]: 91.6%
- viability, T/C [4]: 83%
- viability, T/C [5]: 79.7%
- viability, T/C [6]: 69.3%
- viability, T/C [7]: 109%
- viability, T/C [8]: 98.3%
- viability, T/C [9]: 93.7%
- viability, T/C [10]: 88.9%
- viability, T/C [11]: 88.2%
- viability, T/C [12]: 61.8%
- viability, T/C [13]: 91.6%
- viability, T/C [14]: 86.5%
- viability, T/C [15]: 78.6%
- viability, T/C [16]: 69.5%
- viability, T/C [17]: 73.5%
- viability, T/C [18]: 58%
- viability, T/C [19]: 89.2%
- viability, T/C [20]: 86.2%
- viability, T/C [21]: 70.3%
- viability, T/C [22]: 62.2%
- viability, T/C [23]: 68.2%
- viability, T/C [24]: 58.6%
- viability, T/C [25]: 85.4%
- viability, T/C [26]: 77.9%
- viability, T/C [27]: 65.5%
- viability, T/C [28]: 53.9%
- viability, T/C [29]: 56.5%
- viability, T/C [30]: 42%
- viability, T/C [31]: 62.2%
- viability, T/C [32]: 48%
- viability, T/C [33]: 49%
- viability, T/C [34]: 40.2%
- viability, T/C [35]: 39.2%
- viability, T/C [36]: 22.1%

- IC50 (second compound 0.0316 µM): > 10 µM
- IC50 (second compound 0.1 µM): > 10 µM
- IC50 (second compound 0.316 µM): > 10 µM
- IC50 (second compound 1 µM): > 10 µM
- IC50 (second compound 3.16 µM): > 10 µM
- IC50 (second compound 10 µM): > 10 µM
SMILES: C=CC(=O)N1CCN(c2nc(=O)n(-c3c(C)ccnc3C(C)C)c3nc(-c4c(O)cccc4F)c(F)cc23)C(C)C1 (centres undefined) + Cc1nc(NC(=O)N2CCCC2C(N)=O)sc1-c1ccnc(C(C)(C)C(F)(F)F)c1
- viability, T/C [1]: 91%
- viability, T/C [2]: 102%
- viability, T/C [3]: 87.7%
- viability, T/C [4]: 96.5%
- viability, T/C [5]: 93.3%
- viability, T/C [6]: 73.9%
- viability, T/C [7]: 91.8%
- viability, T/C [8]: 96.8%
- viability, T/C [9]: 98.6%
- viability, T/C [10]: 99%
- viability, T/C [11]: 97.4%
- viability, T/C [12]: 61.7%
- viability, T/C [13]: 96.6%
- viability, T/C [14]: 96.7%
- viability, T/C [15]: 99.5%
- viability, T/C [16]: 85.2%
- viability, T/C [17]: 96.3%
- viability, T/C [18]: 73.5%
- viability, T/C [19]: 90.2%
- viability, T/C [20]: 83.4%
- viability, T/C [21]: 80.5%
- viability, T/C [22]: 73.6%
- viability, T/C [23]: 80.8%
- viability, T/C [24]: 63%
- viability, T/C [25]: 74.9%
- viability, T/C [26]: 85.6%
- viability, T/C [27]: 67%
- viability, T/C [28]: 69.9%
- viability, T/C [29]: 72.8%
- viability, T/C [30]: 55.5%
- viability, T/C [31]: 58.4%
- viability, T/C [32]: 61.2%
- viability, T/C [33]: 56.9%
- viability, T/C [34]: 68.3%
- viability, T/C [35]: 57.8%
- viability, T/C [36]: 40%

Reference: PubChem BioAssay AID1963979 (Molecular Pharmacology Branch, DTP, NCI, 2024)
